One compound from paper PMC4660270 (Structure (London, England : 1993), 2015) can be followed below.

In the assay the target is TEAD4 (Homo sapiens, UniProt Q15561). As to the kind of experiment: ITC. The assay is classed as binding.

Structures are written as SMILES.

TEAD4, sequence (Q15561 217-434): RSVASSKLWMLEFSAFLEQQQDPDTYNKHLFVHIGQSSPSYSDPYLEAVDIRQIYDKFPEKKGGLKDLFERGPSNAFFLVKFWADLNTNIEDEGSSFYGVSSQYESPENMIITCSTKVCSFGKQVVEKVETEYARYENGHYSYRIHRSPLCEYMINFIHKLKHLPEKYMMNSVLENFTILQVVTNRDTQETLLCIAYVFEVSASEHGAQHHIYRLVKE

As usually defined, the Kd is a measure of binding affinity in units of concentration. `O=C(O)c1ccccc1Nc1cccc(C(F)(F)F)c1` [FA, flufenamic acid]: the dissociation constant Kd is roughly 73 µM.
